Measurements reported in patent publication US12077503B2, “Substituted cyclic amides and their use as herbicides” (FMC CORPORATION, priority 2015, dated 2024).
Like-named read-outs stand apart in the source and are kept apart here.

Tests used:
Type in all cases: in vivo
[1] = tested on: Galium (catchweed bedstraw, Galium aparine); test: Test A postemergence; conditions: Galium, post-emergence, 240 h; for pest or weed control at 125 g/ha: 125 g ai/ha, visual injury vs untreated controls after approx. 10 d, 0 = no effect, 100 = complete control, read-out: Galium plant response rating (0 to 100 scale); for pest or weed control at 500 g/ha: 500 g ai/ha
Method in brief: (§1)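 Each rating is a visual injury score from 0 to 100 given about 10 d after treatment, judged against untreated controls kept alongside in the greenhouse. In loam soil–sand blend, seeds got a preemergence directed soil spray, while postemergence plants were 2 to 10 cm tall at spraying.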

Kochia (Kochia scoparia) = test: Test A postemergence; conditions: Bassia scoparia, post-emergence, 240 h; for pest or weed control at 125 g/ha: 125 g ai/ha, visual injury vs untreated controls after approx. 10 d, 0 = no effect, 100 = complete control, read-out: Kochia plant response rating (0 to 100 scale); for pest or weed control at 500 g/ha: 500 g ai/ha
Method in brief: as §1

[2] = tested on: barnyardgrass (Echinochloa crus-galli); test: Test A postemergence; conditions: Echinochloa crus-galli, post-emergence, 240 h; for pest or weed control at 125 g/ha: 125 g ai/ha, visual injury vs untreated controls after approx. 10 d, 0 = no effect, 100 = complete control, read-out: Barnyardgrass plant response rating (0 to 100 scale); for pest or weed control at 500 g/ha: 500 g ai/ha
Method in brief: as §1

[3] = tested on: blackgrass (Alopecurus myosuroides); test: Test A postemergence; conditions: Alopecurus myosuroides, post-emergence, 240 h; for pest or weed control at 125 g/ha: 125 g ai/ha, visual injury vs untreated controls after approx. 10 d, 0 = no effect, 100 = complete control, read-out: Blackgrass plant response rating (0 to 100 scale); for pest or weed control at 500 g/ha: 500 g ai/ha
Method in brief: as §1

corn (Zea mays) = test: Test A postemergence; conditions: Zea mays, post-emergence, 240 h; for plant injury at 125 g/ha: 125 g ai/ha, visual injury vs untreated controls after approx. 10 d, 0 = no effect, 100 = complete control, read-out: Corn plant response rating (0 to 100 scale)
Method in brief: as §1

[4] = tested on: giant foxtail (Setaria faberii); test: Test A postemergence; conditions: Setaria faberi, post-emergence, 240 h; for pest or weed control at 125 g/ha: 125 g ai/ha, visual injury vs untreated controls after approx. 10 d, 0 = no effect, 100 = complete control, read-out: Foxtail, Giant plant response rating (0 to 100 scale); for pest or weed control at 500 g/ha: 500 g ai/ha
Method in brief: as §1

[5] = tested on: pigweed (Amaranthus retroflexus); test: Test A postemergence; conditions: Amaranthus retroflexus, post-emergence, 240 h; for pest or weed control at 125 g/ha: 125 g ai/ha, visual injury vs untreated controls after approx. 10 d, 0 = no effect, 100 = complete control, read-out: Pigweed plant response rating (0 to 100 scale); for pest or weed control at 500 g/ha: 500 g ai/ha
Method in brief: as §1

[6] = tested on: ragweed (common ragweed, Ambrosia elatior); test: Test A postemergence; conditions: Ambrosia artemisiifolia, post-emergence, 240 h; for pest or weed control at 125 g/ha: 125 g ai/ha, visual injury vs untreated controls after approx. 10 d, 0 = no effect, 100 = complete control, read-out: Ragweed plant response rating (0 to 100 scale); for pest or weed control at 500 g/ha: 500 g ai/ha
Method in brief: as §1

[7] = tested on: ryegrass, Italian (Italian ryegrass, Lolium multiflorum); test: Test A postemergence; conditions: Lolium multiflorum, post-emergence, 240 h; for pest or weed control at 125 g/ha: 125 g ai/ha, visual injury vs untreated controls after approx. 10 d, 0 = no effect, 100 = complete control, read-out: Ryegrass, Italian plant response rating (0 to 100 scale); for pest or weed control at 500 g/ha: 500 g ai/ha
Method in brief: as §1

[8] = tested on: wheat (Triticum aestivum); test: Test A postemergence; conditions: Triticum aestivum, post-emergence, 240 h; for plant injury at 125 g/ha: 125 g ai/ha, postemergence, visual injury vs untreated controls after approx. 10 d, 0 = no effect, 100 = complete control, read-out: Wheat plant response rating (0 to 100 scale)
Method in brief: as §1

[9] = tested on: barnyardgrass (Echinochloa crus-galli); test: Test B flooded paddy test; conditions: Echinochloa crus-galli, 250 g ai/ha, Flood; 0 to 100 scale where 0 is no effect and 100 is complete control; read-out: Barnyardgrass plant response rating
Method in brief: (§2)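 Rating scale 0–100 (visual, vs untreated controls) after a 13–15 d greenhouse period; application to the flood layer, 3 cm above soil and maintained; plants at 2-leaf stage when treated.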

[10] = tested on: ducksalad (Heteranthera limosa); test: Test B flooded paddy test; conditions: Heteranthera limosa, 250 g ai/ha, Flood; 0 to 100 scale where 0 is no effect and 100 is complete control; read-out: Ducksalad plant response rating
Method in brief: as §2

rice (Oryra sativa) = test: Test B flooded paddy test; conditions: Oryza sativa, 250 g ai/ha, Flood; 0 to 100 scale where 0 is no effect and 100 is complete control; read-out: Rice plant response rating
Method in brief: as §2

[11] = tested on: sedge, umbrella (small-flower umbrella sedge, Cyperus difformis); test: Test B flooded paddy test; conditions: Cyperus difformis, 250 g ai/ha, Flood; 0 to 100 scale where 0 is no effect and 100 is complete control; read-out: Sedge, Umbrella plant response rating
Method in brief: as §2

| Structure (SMILES) | pest or weed control at 125 g/ha ([1]; postemergence) [%] | pest or weed control at 125 g/ha (Kochia (Kochia scoparia); postemergence) [%] | pest or weed control at 125 g/ha ([2]; postemergence) [%] | pest or weed control at 125 g/ha ([3]; postemergence) [%] | plant injury at 125 g/ha (corn (Zea mays); postemergence) [%] | pest or weed control at 125 g/ha ([4]; postemergence) [%] | pest or weed control at 125 g/ha ([5]; postemergence) [%] | pest or weed control at 125 g/ha ([6]; postemergence) [%] | pest or weed control at 125 g/ha ([7]; postemergence) [%] | plant injury at 125 g/ha [8] [%] | pest or weed control at 250 g/ha [9] [%] | pest or weed control at 250 g/ha [10] [%] | pest or weed control at 250 g/ha (rice (Oryra sativa)) [%] | pest or weed control at 250 g/ha [11] [%] | other results |
| --- | --- | --- | --- | --- | --- | --- | --- | --- | --- | --- | --- | --- | --- | --- | --- |
| Cc1ccccc1NC(=O)[C@H]1C(=O)N(C)C[C@@H]1c1ccc(C(F)(F)F)cc1 [Compound 1239] | 60 | 40 | 90 | 70 | 50 | 90 | 50 | 20 | 20 | 30 | 40 | 100 | 20 | 0 | pest or weed control at 500 g/ha ([1]; postemergence, 0 to 100 scale, 0 is no effect, 100 is complete control, read-out: Galium plant response rating): 60%; pest or weed control at 500 g/ha (Kochia (Kochia scoparia); postemergence, 0 to 100 scale, 0 is no effect, 100 is complete control, read-out: Kochia plant response rating): 70%; pest or weed control at 500 g/ha ([2]; postemergence, 0 to 100 scale, 0 is no effect, 100 is complete control, read-out: Barnyardgrass plant response rating): 80%; pest or weed control at 500 g/ha ([3]; postemergence, 0 to 100 scale, 0 is no effect, 100 is complete control, read-out: Blackgrass plant response rating): 80%; plant injury at 500 g/ha (corn (Zea mays); 500 g ai/ha, postemergence, 0 to 100 scale, 0 is no effect, 100 is complete control, read-out: Corn plant response rating): 70%; pest or weed control at 500 g/ha ([4]; postemergence, 0 to 100 scale, 0 is no effect, 100 is complete control, read-out: Foxtail, Giant plant response rating): 90%; pest or weed control at 500 g/ha ([5]; postemergence, 0 to 100 scale, 0 is no effect, 100 is complete control, read-out: Pigweed plant response rating): 50%; pest or weed control at 500 g/ha ([6]; postemergence, 0 to 100 scale, 0 is no effect, 100 is complete control, read-out: Ragweed plant response rating): 60%; pest or weed control at 500 g/ha ([7]; postemergence, 0 to 100 scale, 0 is no effect, 100 is complete control, read-out: Ryegrass, Italian plant response rating): 50% |
| CCc1ccc([C@H]2CNC(=O)[C@@H]2C(=O)Nc2c(F)cccc2F)cc1 [Compound 1248] | 0 | 0 | 0 | 0 | 0 | 0 | 0 | 0 | 0 | 0 | 15 | 70 | 0 | 0 | pest or weed control at 500 g/ha ([1]; Postemergence, visual injury, 0 to 100 scale (0 no effect, 100 complete control), approx. 10 d, read-out: Plant response rating, Galium): 0%; pest or weed control at 500 g/ha (Kochia (Kochia scoparia); Postemergence, visual injury, 0 to 100 scale (0 no effect, 100 complete control), approx. 10 d, read-out: Plant response rating, Kochia): 0%; pest or weed control at 500 g/ha ([2]; Postemergence, visual injury, 0 to 100 scale (0 no effect, 100 complete control), approx. 10 d, read-out: Plant response rating, Barnyardgrass): 50%; pest or weed control at 500 g/ha ([3]; Postemergence, visual injury, 0 to 100 scale (0 no effect, 100 complete control), approx. 10 d, read-out: Plant response rating, Blackgrass): 0%; Corn plant response rating (crop injury, 0 = no effect, 100 = complete kill) at 500 g/ha (corn (Zea mays); Postemergence, 500 g ai/ha, visual injury, 0 to 100 scale (0 no effect, 100 complete control), approx. 10 d): 0%; pest or weed control at 500 g/ha ([4]; Postemergence, visual injury, 0 to 100 scale (0 no effect, 100 complete control), approx. 10 d, read-out: Plant response rating, Foxtail, Giant): 20%; pest or weed control at 500 g/ha ([5]; Postemergence, visual injury, 0 to 100 scale (0 no effect, 100 complete control), approx. 10 d, read-out: Plant response rating, Pigweed): 0%; pest or weed control at 500 g/ha ([6]; Postemergence, visual injury, 0 to 100 scale (0 no effect, 100 complete control), approx. 10 d, read-out: Plant response rating, Ragweed): 0%; pest or weed control at 500 g/ha ([7]; Postemergence, visual injury, 0 to 100 scale (0 no effect, 100 complete control), approx. 10 d, read-out: Plant response rating, Ryegrass, Italian): 0%; plant injury at 500 g/ha ([8]; Postemergence, 500 g ai/ha, visual injury, 0 to 100 scale (0 no effect, 100 complete control), approx. 10 d, read-out: Plant response rating, Wheat): 0% |
